In US20090203877A1, “X-RAY-DENSE CONJUGATE” (Eberhard-Karls-Universitaet Tuebingen Universitaetsklinkum, priority 2006, published 2009):
Entries after “also recorded” stand apart in the source; their conditions may differ.

Legend:
[1] = tested on: human malignant LN18 glioma cells; assay: Uptake/staining of cells by FITC-labelled conjugates (CLSM, FACS, semi-thin sections); format: cell-based; conditions: free compound co-incubated with conjugate 3 (260 μM)
Method: The human malignant U373 and LN18 glioma cells were cultivated in 75 cm^2 culture flasks (Corning Costar) (70% confluency) under the conditions as described under 1.4, detached from the flask bottom with Accutase™ (PAA Laboratories) and in the following distributed on Eppendorf tubes (Eppendorf, Hamburg, Germany) (6×10^6 per tube). The cells in the first tube serve as a control (only PBS buffer only). The cells in the other ten tubes were each incubated with benzoic acid (BA), monoiodobenzoic acid (MIBA) or diiodobenzoic acid (DIBA) alone (260 μM), conjugate 3 alone (260 μM), conjugate 3 plus either BA, MIBA or DIBA (260 μM), respectively, and the conjugates 9, 10, and 11 alone. (260 μM).
(§1) After an incubation of 20 minutes at 37° C./5% CO2 the cells were washed three times with PBS buffer and centrifuged at 800 rpm (rounds per minute) for 5 minutes. The fluorescence was measured in Becton Dickinson FACSCalibur as described under 1.4. The computer tomography was performed as described under 1.5.1. The examinations were repeated two times. […]
The FACS analysis was performed as described under 1.4. The assay was repeated two times.
For the CT and FACS examinations human LN18 and U373 glioma cells were cultivated in 75 cm^2 culture flasks (70% confluency) (conditions as described under section 1). Accutase™ (PAA Laboratories) was added to detach the cell from the culture bottom. The cells were collected and then distributed on Eppendorf-tubes (6×10^6 cells per tube). […] The next three tubes were used for the coincubation of the cells either with trichlorobenzoic acid (TCBA), trifluorobenzoic acid (TFBA) or tribromophenyl Isocyanat (TBPI) and the NLS-FITC-conjugate 3 (260 μM). As control cells were used which were only either incubated with CIBA, FIBA, TBPI (in each case 260 μM in PBS) or with PBS-buffer (native control) alone. […] The computer tomography and FACS analysis of the cell centrifuges were performed as described in 1.5.1 or 1.4, respectively for three times.
All measurements were performed on living cells.
All measurements were performed on living cells in triplicates.
A part of the cells which were stained for the FACS analysis, was fixed by paraformaldehyl with 2% Agar, dehydrogenized in ethanol, embedded in Lowicryl K4M (Polysciences, Eppelheim, Germany) and according to the information of the manufacturer UV-polymerised at room temperature. Semi-thin sections (about 0.4 μm) were cut and evaluated by means of fluorescence microscopy.

[2] = tested on: human malignant U373 glioma cells; assay: Cell viability / cell death (MTT test, propidium iodide, annexin-V-Alexa 568 binding, FACS scatter morphology); conditions: 260 μM in PBS, 20 min, substance alone
Method: Human malignant U373-glioma cells were grown to 70% confluency in RPMI-1640 Ready Mix Medium containing L-Glutamine and 10% FBS-Gold (PAA laboratories, Pasching, Austria) at 37° C., 5% CO2 (vol/vol), in 4-well-plates (NUNC, Wiesbaden, Germany) with about 300,000 cells pro well. […] After this, the cells were washed three times with buffer and then incubated with Ready Mix Medium again. Cell viability was then assessed by the addition of methyl-thiazoyl-tetrazolium (MTT) salt (Sigma-Aldrich, Germany) at a concentration of 15 mg/ml. After 20 minutes, the production of formazan was investigated. When blue formazan granules were detected, propidium iodine (PI) was added to the medium (1 μM PI; Molecular Probes, Eugene, Oreg., USA) to detect cells with damaged cell membranes. […] Pictures were taken with a 3-CCD color video camera (MC3254P, Sony, Japan) and the Axiovision Software (Carl Zeiss, Jena, Germany). The intensity of cell fluorescence was recorded at the exposure time necessary for the production of the fluorescence images.
After imaging, Accutase™ (PAA laboratories, Pasching, Austria) was added to the wells to achieve detachment of the cells for further FACS analysis. Fluorescence was measured in a Becton Dickinson FACSCalibur. A total of 20,000 events per sample were analyzed. The investigations were performed in triplicate.
A sample of cells from each Eppendorf tube was subjected to the MTT test (described under 1.4) to determine microscopically whether the cells were viable. In vitro CT of the cell pellets was performed with a Somatom Sensation 16 (Siemens) which is used for routine clinical investigations.
Cells were incubated for 20 minutes with each of the conjugates dissolved in 0.1% DMSO/PBS at 260 μm. The cells were also incubated with TIBA and both of the non-TIBA-containing conjugates (3 and 4) separately in 0.1% DMSO/OBS at 260 μm. Both TIBA and the conjugates were dissolved in 0.1% DMSO/PBS at 260 μm for incubation due to the insolubility of TIBA (but not the conjugates) in pure PBS. As controls, the cells were incubated with PBS alone, 0.1% DMSO/PBS alone, and TIBA alone (260 μm in 0.1% DMSO/PBS).
The detection of phosphatidyl serine in the outer membrane leaflet of apoptotic cells was performed with the Annexin-V-Alexa™-568-reagent according to manufacturer's protocol (Roche Molecular Biochemicals, Indianapolis, USA). The confocal laser-scanning microscopy was performed on an inverted LSM 510 laser-scanning microscope (Carl Zeiss, Jena, Germany) (objectives: LD Achroplan 40×0.6, Plan Neofluar 20×0.50, 40×0.75). For fluorescence excitation, the 488 nm line of an argon-ion laser and the […] line of a helium-neon laser with appropriate beam splitters and barrier filters were used for FITC and Alexa respectively. Superimposed images of FITC- and Alexa-stained samples were created by overlaying coincident views. All measurements were performed on living, non-fixed cells.
Human malignant LN18 and U373 glioma cells were cultivated in four-well plates (NUNC, Wiesbaden, Germany) (about 300,000 cells per well) as described under 1.5. […] The cells were also coincubated either with CIBA, FIBA or TBPI as well as the NLS-FITC conjugate 3 (each 260 μM). As a control cells were used which were only incubated either with CIBA, FIBA or TBPI (260 μM in PBS) alone. After the incubation the cells were washed three times with PBS and in the following again incubated in Ready Mix Medium. The FITC-labelled conjugates and the Alexa-Annexin for the detection of phosphatidylserine as a signal of the cell death were localized with the confocal laser microscopy (CLSM) as in 1.6.1. All measurements were performed on living cells.

[3] = tested on: human malignant LN18 glioma cells; assay: Cell viability / cell death (annexin-V-Alexa 568 binding, propidium iodide, FACS scatter morphology); format: cell-based
Method: All measurements were performed on living, non-fixed cells. […] All measurements were performed on living cells. […] All measurements were performed on living cells in triplicates. […] All measurements were performed on living cells.

[4] = tested on: human malignant U373 glioma cells; assay: Computer tomography, signal density of cell pellets; format: cell-based; conditions: 260 μM, 20 min
Method: For CT and FACS human U373 glioma cells were grown under the same conditions in 75 cm^2 culture flasks (Corning Costar, Bodenheim, Germany) (70% confluency). Accutase™ (PAA laboratories, Pasching, Austria) was added to achieve detachment of the cells which were harvested and subsequently aliquoted into Eppendorf tubes (6×10^6 cells per tube). As in the investigations performed by fluorescence microscopy, the cells in the first tube served as a control (PBS only). The cells in the other tubes were incubated with 260 μM Ultravist, 260 μM TIBA in PBS and 26 μM, 260 μM and 2.6 mM conjugates 1-4 in PBS. After a 20 minute incubation period at 37° C. in an atmosphere of 5% CO2, the cells were washed three times in PBS and centrifuged at 800 rpm for 5 minutes.
The inner ear spiral CT protocol consisted of: tube voltage 120 KV, effective mAs 550, time of imaging TI: 1.5, SL 0.75/0.75/4.5, FOV: 50 0/52, kernel: U70, window: intervertebral disc.
3D-images were obtained using InSpace Software (Syngo CT 2006G) (Siemens AG, Erlangen, Germany).
as §1
An Orbita CT spiral was used: tube voltage 120 KV, effective mAs 550, time of imaging TI: 1.5, SL 0.75/0.75/4.5, FOV: 50 0/52, GT: 0.0, kernel: U70, window: intervertebral disc. 3D images were made with the InSpace Software (Syngo CT 2006G) (Siemens AG, Erlangen, Germany). […]

[5] = tested on: human vascular endothelial cells; conditions: traditional contrast media; cited from earlier work
[6] = 260 μM, 20 min, substance alone
[7] = free compound co-incubated with conjugate 3 (260 μM)

Compound | staining rate / number of stained cells [1] | cytotoxic effects / signs of cell death [2] | cell death / vitality (annexin-V-Alexa 568, propidium iodide) [3, 6] | cell death / vitality (annexin-V-Alexa 568, propidium iodide) [3, 7] | CT signal density of cell pellets [4] | concentration at which apoptosis is induced [5] [mg iodine per millilitre]
O=C(O)c1ccccc1 [BA, benzoic acid, reference compound] | did not result to a considerable change | did not result in cytotoxic effects | did not result in cytotoxic effects | did not result to a considerable change |  | 
O=C(O)c1cc(I)ccc1I [DIBA, 2,5-diiodobenzoic acid, reference compound] | did not result in a higher staining rate; also recorded: did not result to a considerable change | did not result in cytotoxic effects | did not result in cytotoxic effects | did not result in a binding of annexin-V-Alexa™ 568; also recorded: did not result to a considerable change |  | 
O=C(O)c1ccc(I)cc1 [MIBA, 4-monoiodobenzoic acid, reference compound] | did not result in a higher staining rate; also recorded: did not result to a considerable change | did not result in cytotoxic effects | did not result in cytotoxic effects | did not result in a binding of annexin-V-Alexa™ 568; also recorded: did not result to a considerable change |  | 
COCC(=O)Nc1c(I)c(C(=O)NCC(O)CO)c(I)c(C(=O)N(C)CC(O)CO)c1I (centres unmarked) [Ultravist, Iopromid, reference compound] |  |  |  |  | only low signal density values; also recorded: did not result in any increase in signal density | 250
CC(=O)Nc1c(I)c(NC(C)=O)c(I)c(C(=O)O)c1I [diatrizoate] |  |  |  |  |  | 250
CN(C(=O)CC(=O)N(C)c1c(I)c(C(=O)NC(CO)C(O)CO)c(I)c(C(=O)NC(CO)C(O)CO)c1I)c1c(I)c(C(=O)NC(CO)C(O)CO)c(I)c(C(=O)NC(CO)C(O)CO)c1I (centres unmarked) [iotrolan] |  |  |  |  |  | 250
CNC(=O)c1c(I)c(C(=O)NCC(=O)Nc2c(I)c(C(=O)O)c(I)c(C(=O)NCCO)c2I)c(I)c(N(C)C(C)=O)c1I [ioxaglate] |  |  |  |  |  | 250
